Where “and” joins values, the source holds several entries; their conditions need not be identical. Equal values may be shown once. Calls of active or inactive are those of the source. No rule for the calls is given here.
Tested on: rodent lifetime carcinogenesis bioassay, tumor incidence TD50
Test: chronic cancer bioassays in animals – CPDB, compiled studies (AID 1745844)

Compound: [O-][Br+2]([O-])O
- TD50 (hamster, strain Syrian Golden, males, in drinking water, site: kidney, lesion: renal-cell tumor, dosed 89 weeks, study length 89 weeks): 533 mg/kg/day
- TD50 (mouse, strain B6C3F1, females, in drinking water, site: any site (literature study), lesion: several types, types named in the paper, dosed 78 weeks, study length 104 weeks): 477 mg/kg/day
- TD50 (mouse, strain B6C3F1, females, in drinking water, site: liver, lesion: adenoma, dosed 78 weeks, study length 104 weeks): 1180 mg/kg/day
- TD50 (mouse, strain B6C3F1, females, in drinking water, site: liver, lesion: several types, types named in the paper, dosed 78 weeks, study length 104 weeks): 1710 mg/kg/day
- TD50 (mouse, strain B6C3F1, females, in drinking water, site: lung, lesion: adenoma, dosed 78 weeks, study length 104 weeks): 2030 mg/kg/day
- TD50 (mouse, strain B6C3F1, females, in drinking water, site: lung, lesion: several types, types named in the paper, dosed 78 weeks, study length 104 weeks): 1050 mg/kg/day
- TD50 (mouse, strain B6C3F1, males, in drinking water, site: kidney, lesion: renal-cell carcinoma, dosed 100 weeks, study length 100 weeks): 92.5 mg/kg/day
- TD50 (mouse, strain B6C3F1, males, in drinking water, site: kidney, lesion: several types, types named in the paper, dosed 100 weeks, study length 100 weeks): 53.8 mg/kg/day
- TD50 (mouse, strain Theiller's Original, females, in feed, site: liver, lesion: hemangioma, dosed 80 weeks, study length 80 weeks): 347 mg/kg/day (inactive)
- carcinogen call (mouse, strain Theiller's Original, males, in feed, site: any site (literature study), lesion: malignant tumor, dosed 80 weeks, study length 80 weeks): negative (inactive)
- carcinogen call (mouse, strain Theiller's Original, males, in feed, site: liver, lesion: one or several types, types not named, dosed 80 weeks, study length 80 weeks): negative (inactive)
- TD50 (rat, strain F344/DuCrj, males, in drinking water, site: kidney, lesion: adenocarcinoma, dosed 26 weeks, study length 104 weeks): 79.2 mg/kg/day
- TD50 (rat, strain F344/DuCrj, males, in drinking water, site: kidney, lesion: adenocarcinoma, dosed 39 weeks, study length 104 weeks): 16.9 mg/kg/day
- TD50 (rat, strain F344/DuCrj, males, in drinking water, site: kidney, lesion: adenocarcinoma, dosed 52 weeks, study length 104 weeks): 35.5 mg/kg/day
- TD50 (rat, strain F344/DuCrj, males, in drinking water, site: kidney, lesion: adenocarcinoma, dosed 104 weeks, study length 104 weeks): 105 mg/kg/day and 224 mg/kg/day
- TD50 (rat, strain F344/DuCrj, males, in drinking water, site: kidney, lesion: adenoma, dosed 26 weeks, study length 104 weeks): 6.67 mg/kg/day
- TD50 (rat, strain F344/DuCrj, males, in drinking water, site: kidney, lesion: adenoma, dosed 39 weeks, study length 104 weeks): 5.57 mg/kg/day
- TD50 (rat, strain F344/DuCrj, males, in drinking water, site: kidney, lesion: adenoma, dosed 52 weeks, study length 52 weeks): 4.98 mg/kg/day
- TD50 (rat, strain F344/DuCrj, males, in drinking water, site: kidney, lesion: adenoma, dosed 52 weeks, study length 104 weeks): 10.1 mg/kg/day
- TD50 (rat, strain F344/DuCrj, males, in drinking water, site: kidney, lesion: adenoma, dosed 104 weeks, study length 104 weeks): 48 mg/kg/day and 35.7 mg/kg/day
- TD50 (rat, strain F344/DuCrj, males, in drinking water, site: kidney, lesion: renal-cell tumor, dosed 104 weeks, study length 104 weeks): 28.9 mg/kg/day
- TD50 (rat, strain F344/DuCrj, males, in drinking water, site: kidney, lesion: several types, types named in the paper, dosed 26 weeks, study length 104 weeks): 6.67 mg/kg/day
- TD50 (rat, strain F344/DuCrj, males, in drinking water, site: kidney, lesion: several types, types named in the paper, dosed 39 weeks, study length 104 weeks): 4.81 mg/kg/day
- TD50 (rat, strain F344/DuCrj, males, in drinking water, site: kidney, lesion: several types, types named in the paper, dosed 52 weeks, study length 104 weeks): 8.32 mg/kg/day
- TD50 (rat, strain F344/DuCrj, males, in drinking water, site: kidney, lesion: several types, types named in the paper, dosed 104 weeks, study length 104 weeks): 28.7 mg/kg/day
- TD50 (rat, strain F344/DuCrj, males, in drinking water, site: liver, lesion: neoplastic nodule, dosed 104 weeks, study length 104 weeks): 53.2 mg/kg/day
- TD50 (rat, strain F344/DuCrj, males, in drinking water, site: peritoneum, lesion: mesothelioma, dosed 26 weeks, study length 104 weeks): 7.84 mg/kg/day
- TD50 (rat, strain F344/DuCrj, males, in drinking water, site: peritoneum, lesion: mesothelioma, dosed 39 weeks, study length 104 weeks): 14 mg/kg/day
- TD50 (rat, strain F344/DuCrj, males, in drinking water, site: peritoneum, lesion: mesothelioma, dosed 52 weeks, study length 52 weeks): 25.6 mg/kg/day
- TD50 (rat, strain F344/DuCrj, males, in drinking water, site: peritoneum, lesion: mesothelioma, dosed 52 weeks, study length 104 weeks): 19.4 mg/kg/day
- TD50 (rat, strain F344/DuCrj, males, in drinking water, site: peritoneum, lesion: mesothelioma, dosed 104 weeks, study length 104 weeks): 12.4 mg/kg/day and 19.5 mg/kg/day
- TD50 (rat, strain F344/DuCrj, males, in drinking water, site: thyroid gland, lesion: follicular-cell adenoma, dosed 104 weeks, study length 104 weeks): 59.5 mg/kg/day
- TD50 (rat, strain F344/DuCrj, males, in drinking water, site: thyroid gland, lesion: follicular-cell tumor, dosed 26 weeks, study length 104 weeks): 11.3 mg/kg/day
- TD50 (rat, strain F344/DuCrj, males, in drinking water, site: thyroid gland, lesion: follicular-cell tumor, dosed 52 weeks, study length 104 weeks): 19.4 mg/kg/day
- TD50 (rat, strain F344/DuCrj, males, in drinking water, site: thyroid gland, lesion: follicular-cell tumor, dosed 104 weeks, study length 104 weeks): 39.8 mg/kg/day and 54.7 mg/kg/day
- TD50 (rat, strain Fischer 344, females, in drinking water, site: any site (literature study), lesion: several types, types named in the paper, dosed 110 weeks, study length 111 weeks): 9.05 mg/kg/day
- TD50 (rat, strain Fischer 344, females, in drinking water, site: kidney, lesion: adenocarcinoma, dosed 110 weeks, study length 111 weeks): 16.4 mg/kg/day
- TD50 (rat, strain Fischer 344, females, in drinking water, site: kidney, lesion: adenoma, dosed 110 weeks, study length 111 weeks): 87.5 mg/kg/day
- TD50 (rat, strain Fischer 344, females, in drinking water, site: kidney, lesion: several types, types named in the paper, dosed 110 weeks, study length 111 weeks): 13.7 mg/kg/day
- TD50 (rat, strain Fischer 344, females, in drinking water, site: thyroid gland, lesion: several types, types named in the paper, dosed 110 weeks, study length 111 weeks): 97.6 mg/kg/day
- TD50 (rat, strain Fischer 344, males, in drinking water, site: kidney, lesion: adenocarcinoma, dosed 110 weeks, study length 111 weeks): 12.6 mg/kg/day
- TD50 (rat, strain Fischer 344, males, in drinking water, site: kidney, lesion: adenoma, dosed 110 weeks, study length 111 weeks): 46.2 mg/kg/day
- TD50 (rat, strain Fischer 344, males, in drinking water, site: kidney, lesion: renal-cell adenoma, dosed 52 weeks, study length 52 weeks): 16.7 mg/kg/day
- TD50 (rat, strain Fischer 344, males, in drinking water, site: kidney, lesion: renal-cell adenoma, dosed 77 weeks, study length 77 weeks): 15.3 mg/kg/day
- TD50 (rat, strain Fischer 344, males, in drinking water, site: kidney, lesion: renal-cell adenoma, dosed 100 weeks, study length 100 weeks): 31.1 mg/kg/day
- TD50 (rat, strain Fischer 344, males, in drinking water, site: kidney, lesion: renal-cell carcinoma, dosed 100 weeks, study length 100 weeks): 62.2 mg/kg/day
- TD50 (rat, strain Fischer 344, males, in drinking water, site: kidney, lesion: several types, types named in the paper, dosed 100 weeks, study length 100 weeks): 20.8 mg/kg/day
- TD50 (rat, strain Fischer 344, males, in drinking water, site: kidney, lesion: several types, types named in the paper, dosed 110 weeks, study length 111 weeks): 9.62 mg/kg/day
- TD50 (rat, strain Fischer 344, males, in drinking water, site: liver, lesion: several types, types named in the paper, dosed 110 weeks, study length 111 weeks): 164 mg/kg/day
- TD50 (rat, strain Fischer 344, males, in drinking water, site: peritoneum, lesion: mesothelioma, dosed 110 weeks, study length 111 weeks): 25.3 mg/kg/day
- TD50 (rat, strain Fischer 344, males, in drinking water, site: thyroid gland, lesion: follicular-cell adenoma, dosed 100 weeks, study length 100 weeks): 35.2 mg/kg/day
- TD50 (rat, strain Fischer 344, males, in drinking water, site: thyroid gland, lesion: follicular-cell carcinoma, dosed 77 weeks, study length 77 weeks): 34.8 mg/kg/day
- TD50 (rat, strain Fischer 344, males, in drinking water, site: thyroid gland, lesion: follicular-cell carcinoma, dosed 100 weeks, study length 100 weeks): 62.9 mg/kg/day
- TD50 (rat, strain Fischer 344, males, in drinking water, site: thyroid gland, lesion: several types, types named in the paper, dosed 77 weeks, study length 77 weeks): 21.8 mg/kg/day
- TD50 (rat, strain Fischer 344, males, in drinking water, site: thyroid gland, lesion: several types, types named in the paper, dosed 100 weeks, study length 100 weeks): 22.2 mg/kg/day
- TD50 (rat, strain Fischer 344, males, in drinking water, site: tunica vaginalis, lesion: mesothelioma, dosed 52 weeks, study length 52 weeks): 36.1 mg/kg/day
- TD50 (rat, strain Fischer 344, males, in drinking water, site: tunica vaginalis, lesion: mesothelioma, dosed 77 weeks, study length 77 weeks): 15.3 mg/kg/day
- TD50 (rat, strain Fischer 344, males, in drinking water, site: tunica vaginalis, lesion: mesothelioma, dosed 100 weeks, study length 100 weeks): 11.1 mg/kg/day

Compound: CC(C)=NO
- TD50 (rat, strain MRC-Wistar, females, in drinking water, site: any site (literature study), lesion: several types, types named in the paper, dosed 78 weeks, study length 130 weeks): 91.5 mg/kg/day
- TD50 (rat, strain MRC-Wistar, females, in drinking water, site: liver, lesion: hemangioma, dosed 78 weeks, study length 130 weeks): 408 mg/kg/day (inactive)
- TD50 (rat, strain MRC-Wistar, females, in drinking water, site: liver, lesion: hepatocellular adenoma, dosed 78 weeks, study length 130 weeks): 127 mg/kg/day (inactive)
- TD50 (rat, strain MRC-Wistar, females, in drinking water, site: liver, lesion: several types, types named in the paper, dosed 78 weeks, study length 130 weeks): 127 mg/kg/day (inactive)
- TD50 (rat, strain MRC-Wistar, males, in drinking water, site: any site (literature study), lesion: several types, types named in the paper, dosed 78 weeks, study length 110 weeks): 12.8 mg/kg/day
- TD50 (rat, strain MRC-Wistar, males, in drinking water, site: liver, lesion: hemangioma, dosed 78 weeks, study length 110 weeks): 136 mg/kg/day
- TD50 (rat, strain MRC-Wistar, males, in drinking water, site: liver, lesion: hepatocellular adenoma, dosed 78 weeks, study length 110 weeks): 12.1 mg/kg/day
- TD50 (rat, strain MRC-Wistar, males, in drinking water, site: liver, lesion: several types, types named in the paper, dosed 78 weeks, study length 110 weeks): 12.1 mg/kg/day (inactive)

Compound: Cc1cccc(N)c1
- TD50 (mouse, strain CD-1 HaM/ICR, females, in feed, site: any site (literature study), lesion: several types, types named in the paper, dosed 77 weeks, study length 81 weeks): 1950 mg/kg/day (inactive)
- carcinogen call (mouse, strain CD-1 HaM/ICR, females, in feed, site: any site (literature study), lesion: several types, types named in the paper, dosed 77 weeks, study length 90 weeks): negative (inactive)
- carcinogen call (mouse, strain CD-1 HaM/ICR, females, in feed, site: liver, lesion: several types, types named in the paper, dosed 77 weeks, study length 81 weeks): negative (inactive)
- TD50 (mouse, strain CD-1 HaM/ICR, females, in feed, site: liver, lesion: several types, types named in the paper, dosed 77 weeks, study length 90 weeks): 9990 mg/kg/day (inactive)
- carcinogen call (mouse, strain CD-1 HaM/ICR, females, in feed, site: lung, lesion: several types, types named in the paper, dosed 77 weeks, study length 81 weeks): negative (inactive)
- carcinogen call (mouse, strain CD-1 HaM/ICR, females, in feed, site: lung, lesion: several types, types named in the paper, dosed 77 weeks, study length 90 weeks): negative (inactive)
- TD50 (mouse, strain CD-1 HaM/ICR, males, in feed, site: liver, lesion: hepatoma, dosed 77 weeks, study length 90 weeks): 1440 mg/kg/day
- TD50 (mouse, strain CD-1 HaM/ICR, males, in feed, site: liver, lesion: several types, types named in the paper, dosed 77 weeks, study length 90 weeks): 6770 mg/kg/day
- carcinogen call (mouse, strain CD-1 HaM/ICR, males, in feed, site: lung, lesion: several types, types named in the paper, dosed 77 weeks, study length 90 weeks): negative (inactive)
- TD50 (rat, strain Charles River CD (Sprague-Dawley), males, in feed, site: any site (literature study), lesion: several types, types named in the paper, dosed 77 weeks, study length 98 weeks): 98.4 mg/kg/day (inactive)
- carcinogen call (rat, strain Charles River CD (Sprague-Dawley), males, in feed, site: liver, lesion: several types, types named in the paper, dosed 77 weeks, study length 98 weeks): negative (inactive)

Reference: PubChem BioAssay AID1745844 (Carcinogenic Potency Database (CPDB), 2022)
